Residues, ends and D or L forms follow the SMILES beside them. *: point of attachment. Cbz = O=C(OCc1ccccc1)*; CH2F = FC*
Columns and labels:
[1] = system: human normal hepatic cell L02; assay: Trypan blue exclusion assay, normal cells; format: cell-based; conditions: various concentrations, 24 hours; FIG. 4
Description: (§1) Dissolving Iso A (purity >99%) in DMSO, and preserving stock solution with concentration of 40 mM in −20° C. Detecting the inhibition effects of Iso A in various cells that includes liver cancer cell, breast cancer cell, lung cancer cell, osteosarcoma cell, melanoma cell, cervical cancer cell etc., and in normal human hepatocyte L02, human embryo lung cell HFL1, human mammary epithelial cell MCF 10A. […] Among tested cells, HepG2 cell is the most sensitive to Iso A, thus HepG2 is selected as a model in follow-up experiments.

HepG2 cell = assay: Annexin V flow cytometry analysis of apoptosis; format: cell-based, human; conditions: FIG. 5
Description: as §1

[2] = system: hepatocellular carcinoma cell line HepG2; assay: MTT assay, HepG2 cell growth; format: cell-based, human; conditions: various concentrations, 24 hours; FIG. 3
Description: as §1

Trx1 [3] = molecular target: T1, Trx1 (Homo sapiens, UniProt P10599); assay: Trx1 activity in HepG2 cells (insulin reduction/DTNB); format: cell-based; set-up: endogenous in cells; host or cells: HepG2; conditions: 10-30 μM for 8 hours; relative to 0.5% DMSO control; FIG. 7
T1 sequence (P10599 1-105): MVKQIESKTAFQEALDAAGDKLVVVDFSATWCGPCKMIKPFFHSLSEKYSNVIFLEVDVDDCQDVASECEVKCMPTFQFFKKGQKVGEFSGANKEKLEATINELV
Description: (§2) Methods for measuring Trx1 activity in cells or tissue samples: using lysates (20 mM HEPES (pH 7.9), 300 mM NaCl, 100 mM KCl, 10 mM EDTA and 0.1% Nonidet P-40, protease-contained inhibitor) to lyse the cells or tissue samples. Pre-treating 90 μg protein at 37° C. for 15 min by using DTT activation buffer (50 mmol/liter HEPES (pH 7.6), 1 mmol/liter EDTA, 1 mg/ml bovine serum albumin, and 2 mmol/liter dithiothreitol). Then adding 20 μl reaction mixture (200 μl of 1 M HEPES (pH 7.6), 40 μl of 0.2 mol/liter EDTA, 40 μl of NADPH (40 mg/ml)) and 500 μl insulin. Adding 5 μl thioredoxin reductase for initial reaction while adding water of same volume into the control group. Incubate the samples in 37° C. for 20 min, and then add 6 M guanidine hydrochloride of 0.25 ml and 0.4 mg/ml DTNB to terminate reaction. Detecting optical absorption of 412 nm.
Cultivate human hepatocellular carcinoma cell line HepG2 in vitro culture. […] Calculate the relative activity of Trxl in each group under the condition that negative control activity is 1.

HepG2 xenograft = assay: Murine xenograft tumor model of hepatocellular carcinoma; format: in vivo, BALB/c nude mouse; conditions: 15 mg/kg once daily, 15 days, vs control group
Source text: • a) Cell line: Human hepatocellular carcinoma cell line HepG2 is bought from the Cell Bank of Chinese Academy of Sciences for Type Culture Collection • b) Animal: 20 BALB/c male nude mouse with weight of (13±2 g), the BALB/c mice is bought from Model Animal Research Center of Nanjing University, the animal is bred under the environment without a special pathogen in the Animal Center of Jiangsu Traditional Chinese Medicine Research Institution [SCXK( ? ) 2002-0001]. • c) Pharmaceutical: Iso A 2. Experiment Method: • a) Make of a murine xenograft model ofepatocellular carcinoma: HepG2 cells in log phase are digested with trypin, and suspended with a final density of 2×10^7 cells/ml. Then, 200 μl (100 μl cells+100 μl matrigel) cell suspension is inoculated into the right subaxillary of nude mice with 1 ml injector. • b) Group and administration of experimental animal: grouping when the tumor becomes 100 mm^3 into 10 per group (same average volume per group, too big or small ones are eliminated). Grouping specifically as followings: (1) Iso A 15 mg/kg dose group, (2) solvent control group (0.5% CMC-Na). […] Antitumor effect is determined by tumor inhibition rate. […]

HepG2 cells = assay: Trypan blue exclusion assay, HepG2; format: cell-based, human; conditions: various concentrations, 24 hours; FIG. 4
Description: as §1

[4] = Toxicity assessment in xenograft mice (weight, serum indices, blood routine); format: in vivo, BALB/c nude mouse; conditions: 15 mg/kg
Source text: • a) Cell line: Human hepatocellular carcinoma cell line HepG2 is bought from the Cell Bank of Chinese Academy of Sciences for Type Culture Collection • b) Animal: 20 BALB/c male nude mouse with weight of (13±2 g), the BALB/c mice is bought from Model Animal Research Center of Nanjing University, the animal is bred under the environment without a special pathogen in the Animal Center of Jiangsu Traditional Chinese Medicine Research Institution [SCXK( ? ) 2002-0001]. • c) Pharmaceutical: Iso A 2. Experiment Method: • a) Make of a murine xenograft model ofepatocellular carcinoma: HepG2 cells in log phase are digested with trypin, and suspended with a final density of 2×10^7 cells/ml. Then, 200 μl (100 μl cells+100 μl matrigel) cell suspension is inoculated into the right subaxillary of nude mice with 1 ml injector. • b) Group and administration of experimental animal: grouping when the tumor becomes 100 mm^3 into 10 per group (same average volume per group, too big or small ones are eliminated). Grouping specifically as followings: (1) Iso A 15 mg/kg dose group, (2) solvent control group (0.5% CMC-Na). Administrate one time every day for total 15 days. • c) Sample selection and index observation: • i. observation for normal state: before drug administration, measure the weight and tumor size (tumor volume V=long diameter×short diameter^2/2) one time every day. Observe the locomotor activity, mental state, hair, breath, diet, manure trait and reaction to outside world of the mice. After ending pharmaceutical interference, the mice are anesthetized and the blood is acquired by cardiac puncture. The serum is got by centrifugation and store in −80° C. After the skin of the tumor growing part on the right axilla of the mice is nipped by forceps, use a surgical scissors to cut the skin for exposing the tumor, then use the surgical scissors to dissect the tumor with blunt dissection and use a scale to weigh the tumor, transplanted tumor and calculate the inhibition rate. Antitumor effect is determined by tumor inhibition rate. Tumor inhibition rate (%)=[1−(average weight of tumor in experimental group/average weight of tumor in control group)]×100% • ii. Detecting apoptosis of tumor tissues with TUNEL staining: according to TUNEL apoptosis detection kit specification of Roche Inc. after fixing frozen tissue section in room temperature. • iii. Blood routine examination for assessing the marrow toxicity of Iso A, analyze ALT, AST, ALP level in plasma for assessing hepatotoxicity of Iso A, and measure the creatinine and urea nitrogen for assessing renal damage.
Fabricate mice transplanted hepatocellular carcinoma model, and group mice into control group and Iso A (15 mg/kg) administration group at random. Record the weight and tumor size one time every three days and kill the mice after 15-day-administration for detection and analysis of the tumor tissues, blood etc.

[5] = system: tumor cells (liver cancer, breast cancer, lung cancer, osteosarcoma, melanoma, cervical cancer cell); assay: MTT experiment, growth inhibition of various tumor cells; format: cell-based; conditions: Homo sapiens; all tested tumor cells; FIG. 2
Description: as §1

[6] = system: human normal hepatic cell line L02; assay: MTT assay, normal hepatic cell L02 growth; format: cell-based; conditions: various concentrations, 24 hours; FIG. 3
Description: as §1

Trx1 [7] = molecular target: T1, Trx1; assay: In vitro Trx1 activity, Thioredoxin Activity Fluorescent Assay Kit; format: biochemical; set-up: purchased Sino Biological Inc; conditions: read-out: inhibition rate of Trx1 activity
Description: Trx1 protein was bought from Sino Biological Inc., Trx1 activity detection kit was bought from American Caymen Chemical cooperation.
The in vitro activity of Trx is assayed using the—Thioredoxin Activity Fluorescent Assay Kit (Caymen Chemical). According to the instructions of the kit 2 μl of Iso A with different concentrations (0.195 μM to 100 μM) is added into 0.02 μM Trx mix, following by adding 5 μl of β-NADPH into each sample to incubate in 37° C. for 30 min. Then, a fluorescent substrate is added and Trx1 activity is was recorded as the emission at 518 nm after 488 nm excitation for 30-60 min, with a Thermo Scientific Varioskan Flash fluorescent microplate reader.

Trx1 [8] = molecular target: T1, Trx1; assay: Trx1 activity in xenograft tumor tissues; format: in vivo, BALB/c nude mouse; set-up: from tissue; host or cells: HepG2 xenograft tumor from BALB/c nude mice; conditions: 15 mg/kg once daily, 15 days; FIG. 12
Description: as §2, with “Detecting optical absorption of 412 nm.” left out
• a) Cell line: Human hepatocellular carcinoma cell line HepG2 is bought from the Cell Bank of Chinese Academy of Sciences for Type Culture Collection • b) Animal: 20 BALB/c male nude mouse with weight of (13±2 g), the BALB/c mice is bought from Model Animal Research Center of Nanjing University, the animal is bred under the environment without a special pathogen in the Animal Center of Jiangsu Traditional Chinese Medicine Research Institution [SCXK( ? ) 2002-0001]. • c) Pharmaceutical: Iso A 2. […] Antitumor effect is determined by tumor inhibition rate. […]

Trx1 [9] = molecular target: T1, Trx1; assay: Mass spectrometry analysis of direct conjugation with Trx1 protein; format: binding; set-up: purchased Sino Biological Inc; conditions: 2 h room temperature, MALDI mass spectrometry; FIG. 8
Description: Human-derived Trx1 protein (Sino Biological Inc.) is dissolved in distilled water at a 5 mg/ml and stored. In 25 mM Tris-HCl (pH 7.4) buffer, mixi 4 μl Iso A with 140 μl human Trx1 protein to incubate for 2 h in room temperature. Samples after reaction is treated by Shimadzu Biotech Proteome kit for enzymatic hydrolysis with MonoSpin Trypsin, then desalted by MonoSpin® C18 column for mass spectrometry analysis with MALDI 7090 (SHIMADZU).

## C=C1C(=O)[C@]23C[C@H]1[C@@H](OC(C)=O)[C@H](OC(C)=O)[C@H]2[C@]1(C)C[C@H](OC(C)=O)[C@H](OC(C)=O)C(C)(C)[C@H]1[C@@H](O)C3 [Iso A, Isoforresin A]
[1]
  toxicity to normal cells (trypan blue exclusion): obviously not toxic
HepG2 cell; HepG2, 10 or 20 μM Iso A, 24 hours
  Annexin V positive cells (apoptosis): increasement of Annexin V positive cells
[2]
  inhibition of HepG2 cell growth (MTT): inhibit the growth of HepG2 cell in a concentration-dependent manner
Trx1 [3]
  Trx1 activity in HepG2 cells: significantly reduced
HepG2 xenograft; FIG. 10
  tumor volume: significantly decreased
HepG2 xenograft; FIG. 11
  tumor weight: significantly decreased
HepG2 cells
  cell death of HepG2 cells (trypan blue exclusion): selectively trigger the death of HepG2 cells
[4]; 15 days, xenograft murine model
  toxic or side effects on marrow, liver and kidney: no toxic or side effects
[4]; 15 days, FIG. 13
  ALP level in serum: no obvious difference
  ALT level in serum: no obvious difference
  AST level in serum: no obvious difference
[4]; 15 days, FIG. 14
  creatinine level in serum: no obvious difference
  urea nitrogen level in serum: no obvious difference
[4]; during administration, vs control group, FIG. 9
  body weight of mice: no difference in weight
[5]
  IC50: < 30 µM
[6]
  inhibition of L02 cell growth (MTT): no obvious inhibitory effects
Trx1 [7]
  inhibition at 2.5 µM: 20%
  inhibition at 5 µM: 48.6%
  inhibition at 10 µM: 98%
Trx1 [8]
  Trx1 activity in the tumor tissues: significantly decreased
Trx1 [9]
  direct binding/conjugation with Trx1 protein (Cys 32/35): can directly bind with Trx1 protein

## COC(=O)C[C@H](NC(=O)[C@H](C)NC(=O)[C@@H](NC(=O)OCc1ccccc1)C(C)C)C(=O)CF [Z-VAD-FMK, reference compound] (Cbz-Val-Ala-Asp(OMe)-CH2F)
HepG2 cell; HepG2
  effect of pan-caspase inhibitor on apoptosis induced by Iso A: partially inhibits the apoptosis induced by Iso A
